In PubChem BioAssay (NCI) one finds TGI and GI50 data, which are given here for 15 compounds.

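Step 1: Grow cells in 96-well plates. Step 2: Expose to compound for 48 hours at 5 concentrations. Step 3: Interpolate endpoints linearly; if unreached, use highest concentration. GI50 is the concentration that inhibits growth by half. TGI: total growth inhibition.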

Some test systems named below: A549 NSCLC; ACHN renal; DU-145 prostate; KM12 colon; MDA-MB-231 breast; NCI/ADR-RES ovarian; SF-539 CNS; SNB-75 CNS; TK-10 renal; NCI-H522 lung.
Assay in all cases: growth of human tumour cells (NCI), 48 h

Consider `CC1CCCC(C(O)CC2CC(=O)NC(=O)C2)C1O` (stereo not given), for which the TGI in the assay with A549 NSCLC, in the assay with ACHN renal, with DU-145 prostate, in the assay with KM12 colon, in the assay on MDA-MB-231 breast and with NCI/ADR-RES ovarian was above 100 µM each time. Also, the TGI in the assay on SF-539 CNS, with SNB-75 CNS and in the assay with TK-10 renal was above 100 µM in each case.
Consider `COc1cc(C2SCC(=O)N2c2ncc(C)s2)cc(OC)c1OC` (stereo not given), for which the GI50 in the assay with A549 NSCLC was 45.4 µM; in the assay with ACHN renal, 30.8 µM; with DU-145 prostate, 19.6 µM; with KM12 colon, 18.7 µM; in the assay on NCI-H522 lung it was above 50 µM; with NCI/ADR-RES ovarian it was 29 µM. The GI50 is 13.5 µM in the assay on SF-539 CNS, 14.4 µM in the assay with SNB-75 CNS and 21.4 µM with TK-10 renal. The TGI with A549 NSCLC, in the assay on ACHN renal, in the assay with DU-145 prostate, in the assay with KM12 colon, with NCI-H522 lung and in the assay with NCI/ADR-RES ovarian was above 50 µM in each case. For the same compound, the TGI in the assay on SF-539 CNS was 43.9 µM; in the assay with SNB-75 CNS, above 50 µM; with TK-10 renal it was above 50 µM.
Consider `C/C1=C/C(=O)O[C@@H]2C[C@@H](CC[C@H](C)/C=C\C=C\CC1)O[C@@](O)([C@@H]1CSC(=O)N1)C2`, for which the TGI is above 10 µM with A549 NSCLC; above 10 µM in the assay with ACHN renal; above 10 µM in the assay with DU-145 prostate; above 10 µM with KM12 colon; above 2.65 µM with MDA-MB-231 breast; above 10 µM with NCI/ADR-RES ovarian. For the same compound, the TGI with SF-539 CNS came to 0.991 µM; with SNB-75 CNS, 0.332 µM; in the assay with TK-10 renal it was 1.01 µM.
For `O=C(Nc1ccc(Cl)c(Cl)c1)Nc1c(Oc2ccc(Cl)c(Cl)c2)ccc(Cl)c1S(=O)(=O)O`, the GI50 is 3.53 µM in the assay on A549 NSCLC; 3.22 µM in the assay on DU-145 prostate; 0.927 µM in the assay on KM12 colon; 1.98 µM in the assay with MDA-MB-231 breast; 0.959 µM with NCI/ADR-RES ovarian; 1.51 µM in the assay on SNB-75 CNS. In addition, the TGI with A549 NSCLC was above 100 µM; in the assay with DU-145 prostate, above 100 µM; in the assay with KM12 colon, above 100 µM; in the assay with MDA-MB-231 breast, 66.8 µM; in the assay on NCI/ADR-RES ovarian, above 100 µM; in the assay on SNB-75 CNS, 4.53 µM.
Regarding `CC(C)([NH-])CO.CC(C)([NH-])CO.[Cl][Cd][Cl]`, the GI50 in the assay with A549 NSCLC was 30.2 µM; in the assay on ACHN renal it was above 100 µM; in the assay with KM12 colon, 36.5 µM; with NCI-H522 lung, 1.56 µM; with SF-539 CNS it was 18.7 µM; in the assay on TK-10 renal, 19.1 µM. Further, the TGI in the assay on A549 NSCLC is above 100 µM; in the assay with ACHN renal, above 100 µM; in the assay with KM12 colon, above 100 µM; with NCI-H522 lung, 3.37 µM; with SF-539 CNS, 33.2 µM; with TK-10 renal, 53.6 µM.
For the compound `NCCOCCOCCNc1nc(-c2ccccc2)nc(N2CCN(c3ccccn3)CC2)n1`, the GI50 in the assay with A549 NSCLC was 14.4 µM; in the assay with ACHN renal, 14.5 µM; with DU-145 prostate it was 15.2 µM; in the assay on KM12 colon, 16.1 µM; in the assay with MDA-MB-231 breast, 14.5 µM; in the assay on NCI/ADR-RES ovarian, 16 µM. Also, the GI50 in the assay on SF-539 CNS was 17.6 µM; with SNB-75 CNS, 14.3 µM. The TGI stood at 30.1 µM in the assay with A549 NSCLC; 27.9 µM in the assay on ACHN renal; 28.7 µM in the assay with DU-145 prostate; 31 µM in the assay with KM12 colon; 28.8 µM in the assay on MDA-MB-231 breast; 32.4 µM with NCI/ADR-RES ovarian. Also, the values for the TGI in the assay with SF-539 CNS and in the assay with SNB-75 CNS were 33.1 µM and 30.2 µM, respectively.
For the compound `Oc1ccc2ccccc2c1N=Nc1ccsc1`, the TGI in the assay with A549 NSCLC, in the assay with ACHN renal, in the assay with KM12 colon, in the assay with NCI-H522 lung, in the assay with SF-539 CNS and in the assay on SNB-75 CNS was above 100 µM throughout. The TGI with TK-10 renal is above 100 µM.
`Cc1ccc(S(=O)(=O)NC2(C=O)CCCC3CCCCC32)cc1` (stereo not given): the TGI in the assay on A549 NSCLC, in the assay with ACHN renal, in the assay with KM12 colon, with NCI-H522 lung, in the assay with SF-539 CNS and with SNB-75 CNS was above 100 µM each time. In the assay on TK-10 renal, this compound yielded a TGI above 100 µM.
On to `C/C(CC(=O)Nc1ccc(C)c(C)c1)=N\NC(N)=O`, for which the TGI in the assay with A549 NSCLC, in the assay with ACHN renal, in the assay on KM12 colon, in the assay with NCI-H522 lung, in the assay with SF-539 CNS and in the assay with SNB-75 CNS was above 100 µM each time. Also, in the assay with TK-10 renal, the TGI was above 100 µM.
As to `Cc1ccc(NC(=O)CC2Sc3ccccc3NC2=O)c(C)c1` (stereo not given), the TGI in the assay on A549 NSCLC amounted to 39.7 µM; with ACHN renal, 41 µM; in the assay on KM12 colon it was 20.1 µM; with NCI-H522 lung, 30.4 µM; in the assay on SF-539 CNS, 29.6 µM; in the assay with SNB-75 CNS, 19.2 µM. This compound also returned a TGI in the assay on TK-10 renal of 50.9 µM.
In the case of `O=C(CCN1CCN(c2ccccc2)CC1)N1CCc2c([nH]c3ccccc23)C1c1cccnc1` (stereo not given), the TGI in the assay on A549 NSCLC is 29.7 µM; in the assay on ACHN renal it was 40 µM; in the assay on KM12 colon, 36.7 µM; in the assay on NCI-H522 lung, 30 µM; with SF-539 CNS, 35.4 µM; in the assay with SNB-75 CNS it was 53.3 µM. The same compound displayed a TGI in the assay with TK-10 renal of 18.8 µM.
On to `COC(=O)c1cccn1C(=O)n1cccc1`, for which the TGI in the assay with A549 NSCLC, with ACHN renal, in the assay with KM12 colon, in the assay with NCI-H522 lung, in the assay with SF-539 CNS and in the assay with SNB-75 CNS was above 100 µM in each case. In the assay with TK-10 renal, the TGI is above 100 µM.
As for `O=[P+](O)c1ccsc1`, the TGI in the assay on A549 NSCLC, in the assay with ACHN renal, in the assay on NCI-H522 lung, in the assay on SF-539 CNS and in the assay on TK-10 renal was above 100 µM throughout.
`Cc1cccc(C(C)(C)C)c1NC(=O)CC1C(=O)Nc2ccccc2S1(=O)=O` (stereo not given): the TGI was 27.9 µM with A549 NSCLC; 22.7 µM in the assay on ACHN renal; 10.2 µM in the assay on SF-539 CNS; 30.4 µM in the assay on SNB-75 CNS; 42 µM in the assay with TK-10 renal.
Turning to `CC12CCC3(OCCO3)C(OC(=O)c3ccccc3)=C1CCC21OCCO1` (stereo not given), the TGI with A549 NSCLC, in the assay on ACHN renal, with KM12 colon, with NCI-H522 lung, in the assay on SF-539 CNS and in the assay on SNB-75 CNS was above 100 µM in each case. The compound also showed a TGI in the assay with TK-10 renal above 100 µM.
